Several values for one entry are separate records, joined by “and”; a condition that tells them apart may be missing. Equal values may be shown once. Inconclusive results and toxic doses are left out.
Tested on: P388 leukemia ip, CD2F1 mice, survival T/C
Test: NCI In Vivo Anticancer Drug Screen. Data for tumor model P388 Leukemia (intraperitoneal) in CD2F1 (CDF1) mice
Settings: endpoint: median survival time, higher = longer survival
Method in brief: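 Mice carrying the transplanted tumor received test compound or vehicle. Survival was recorded in each group, and the value is the treated-group measurement divided by that of the vehicle-treated control group.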

[1] = dose: 50.0 mg/kg/injection, schedule: Q01DX005 (ip), vehicle: saline
[2] = dose: 100.0 mg/kg/injection, schedule: Q01DX001 (ip), vehicle: saline
[3] = dose: 50.0 mg/kg/injection, schedule: Q01DX009 (ip), vehicle: saline with Tween-80
[4] = dose: 100.0 mg/kg/injection, schedule: Q01DX009 (ip), vehicle: saline with Tween-80
[5] = dose: 200.0 mg/kg/injection, schedule: Q01DX009 (ip), vehicle: saline with Tween-80
[6] = dose: 400.0 mg/kg/injection, schedule: Q01DX009 (ip), vehicle: saline with Tween-80

SMILES: CC1(C)CC(C)(OC(=O)c2ccccc2Cl)N=N1 (centres undefined)
- T/C (dose: 11.0 mg/kg/injection, schedule: Q01DX009 (ip), vehicle: other): 97 % of control
- T/C (dose: 12.5 mg/kg/injection, schedule: Q01DX009 (ip), vehicle: other): 107 % of control
- T/C (dose: 16.5 mg/kg/injection, schedule: Q01DX009 (ip), vehicle: other): 97 % of control
- T/C (dose: 25.0 mg/kg/injection, schedule: Q01DX009 (ip), vehicle: other): 108 % of control
- T/C (dose: 37.5 mg/kg/injection, schedule: Q01DX009 (ip), vehicle: other): 116 % of control
- T/C (dose: 50.0 mg/kg/injection, schedule: Q01DX009 (ip), vehicle: other): 103 % of control
- T/C (dose: 100.0 mg/kg/injection, schedule: Q01DX009 (ip), vehicle: other): 112 % of control
- T/C (dose: 200.0 mg/kg/injection, schedule: Q01DX009 (ip), vehicle: other): 116 % of control

SMILES: c1ccc(C(Nc2nncs2)Nc2nncs2)cc1
- T/C (dose: 30.0 mg/kg/injection, schedule: Q01DX005 (ip), vehicle: saline with Tween-80): 99 % of control
- T/C (dose: 60.0 mg/kg/injection, schedule: Q01DX005 (ip), vehicle: saline with Tween-80): 100 % of control and 112 % of control
- T/C (dose: 120.0 mg/kg/injection, schedule: Q01DX005 (ip), vehicle: saline with Tween-80): 117 % of control
- T/C (dose: 240.0 mg/kg/injection, schedule: Q01DX005 (ip), vehicle: saline with Tween-80): 157 % of control and 164 % of control

SMILES: CC(O)CC(O)CC1CCCO1 (centres undefined)
- T/C (dose: 12.5 mg/kg/injection, schedule: Q01DX005 (ip), vehicle: saline): 98 % of control
- T/C (dose: 25.0 mg/kg/injection, schedule: Q01DX005 (ip), vehicle: saline): 97 % of control
- T/C [1]: 98 % of control and 88 % of control

SMILES: CC(=O)N(C)c1ccc(Nc2cc(C)[nH]c3ccc4ncnc4c23)cc1
- T/C (dose: 5.0 mg/kg/injection, schedule: Q01DX005 (ip), vehicle: saline): 120 % of control and 122 % of control
- T/C (dose: 6.25 mg/kg/injection, schedule: Q01DX005 (iv), vehicle: saline): 100 % of control
- T/C (dose: 7.0 mg/kg/injection, schedule: Q01DX005 (ip), vehicle: saline): 121 % of control and 123 % of control
- T/C (dose: 11.0 mg/kg/injection, schedule: Q01DX005 (ip), vehicle: saline): 123 % of control
- T/C (dose: 12.5 mg/kg/injection, schedule: Q01DX001 (iv), vehicle: saline): 104 % of control
- T/C (dose: 12.5 mg/kg/injection, schedule: Q01DX005 (iv), vehicle: saline): 106 % of control
- T/C (dose: 12.5 mg/kg/injection, schedule: Q01DX005 (oral), vehicle: saline): 101 % of control
- T/C (dose: 12.5 mg/kg/injection, schedule: Q01DX009 (oral), vehicle: saline): 95 % of control
- T/C (dose: 25.0 mg/kg/injection, schedule: Q01DX001 (ip), vehicle: saline): 110 % of control
- T/C (dose: 25.0 mg/kg/injection, schedule: Q01DX001 (iv), vehicle: saline): 100 % of control
- T/C (dose: 25.0 mg/kg/injection, schedule: Q01DX001 (oral), vehicle: saline): 101 % of control
- T/C (dose: 25.0 mg/kg/injection, schedule: Q01DX005 (iv), vehicle: saline): 105 % of control
- T/C (dose: 25.0 mg/kg/injection, schedule: Q01DX005 (oral), vehicle: saline): 100 % of control
- T/C (dose: 25.0 mg/kg/injection, schedule: Q01DX009 (oral), vehicle: saline): 94 % of control
- T/C (dose: 50.0 mg/kg/injection, schedule: Q01DX001 (ip), vehicle: saline): 123 % of control
- T/C (dose: 50.0 mg/kg/injection, schedule: Q01DX001 (iv), vehicle: saline): 103 % of control
- T/C (dose: 50.0 mg/kg/injection, schedule: Q01DX001 (oral), vehicle: saline): 99 % of control
- T/C [1]: 155 % of control
- T/C (dose: 50.0 mg/kg/injection, schedule: Q01DX005 (iv), vehicle: saline): 100 % of control
- T/C (dose: 50.0 mg/kg/injection, schedule: Q01DX005 (oral), vehicle: saline): 103 % of control
- T/C (dose: 50.0 mg/kg/injection, schedule: Q01DX009 (oral), vehicle: saline): 103 % of control
- T/C (dose: 90.0 mg/kg/injection, schedule: Q04DX002 (ip), vehicle: saline): 158 % of control
- T/C [2]: 157 % of control
- T/C (dose: 100.0 mg/kg/injection, schedule: Q01DX001 (iv), vehicle: saline): 124 % of control
- T/C (dose: 100.0 mg/kg/injection, schedule: Q01DX001 (oral), vehicle: saline): 101 % of control
- T/C (dose: 100.0 mg/kg/injection, schedule: Q01DX005 (oral), vehicle: saline): 97 % of control
- T/C (dose: 100.0 mg/kg/injection, schedule: Q01DX009 (oral), vehicle: saline): 104 % of control
- T/C (dose: 200.0 mg/kg/injection, schedule: Q01DX001 (oral), vehicle: saline): 105 % of control
- T/C (dose: 200.0 mg/kg/injection, schedule: Q01DX005 (oral), vehicle: saline): 103 % of control
- T/C (dose: 200.0 mg/kg/injection, schedule: Q01DX009 (oral), vehicle: saline): 100 % of control
- T/C (dose: 300.0 mg/kg/injection, schedule: Q01DX001 (oral), vehicle: saline): 102 % of control
- T/C (dose: 300.0 mg/kg/injection, schedule: Q01DX005 (oral), vehicle: saline): 106 % of control
- T/C (dose: 400.0 mg/kg/injection, schedule: Q01DX001 (oral), vehicle: saline): 106 % of control
- T/C (dose: 600.0 mg/kg/injection, schedule: Q01DX001 (oral), vehicle: saline): 119 % of control
- T/C (dose: 600.0 mg/kg/injection, schedule: Q01DX005 (oral), vehicle: saline): 119 % of control
- T/C (dose: 1200.0 mg/kg/injection, schedule: Q01DX001 (oral), vehicle: saline): 119 % of control

SMILES: C=C(OP(=O)(OC)OC)Sc1ccccc1C
- T/C (dose: 0.04 mg/kg/injection, schedule: Q01DX005 (ip), vehicle: Klucel (hydroxypropylcellulose) (HPC)): 105 % of control
- T/C (dose: 0.09 mg/kg/injection, schedule: Q01DX005 (ip), vehicle: Klucel (hydroxypropylcellulose) (HPC)): 100 % of control
- T/C (dose: 0.18 mg/kg/injection, schedule: Q01DX005 (ip), vehicle: Klucel (hydroxypropylcellulose) (HPC)): 106 % of control
- T/C (dose: 0.37 mg/kg/injection, schedule: Q01DX005 (ip), vehicle: Klucel (hydroxypropylcellulose) (HPC)): 92 % of control
- T/C (dose: 0.75 mg/kg/injection, schedule: Q01DX005 (ip), vehicle: Klucel (hydroxypropylcellulose) (HPC)): 100 % of control
- T/C (dose: 1.5 mg/kg/injection, schedule: Q01DX005 (ip), vehicle: Klucel (hydroxypropylcellulose) (HPC)): 96 % of control
- T/C (dose: 12.5 mg/kg/injection, schedule: Q01DX009 (ip), vehicle: Klucel (hydroxypropylcellulose) (HPC)): 100 % of control and 97 % of control
- T/C (dose: 25.0 mg/kg/injection, schedule: Q01DX009 (ip), vehicle: Klucel (hydroxypropylcellulose) (HPC)): 102 % of control and 116 % of control
- T/C (dose: 50.0 mg/kg/injection, schedule: Q01DX009 (ip), vehicle: Klucel (hydroxypropylcellulose) (HPC)): 111 % of control and 121 % of control
- T/C (dose: 100.0 mg/kg/injection, schedule: Q01DX009 (ip), vehicle: Klucel (hydroxypropylcellulose) (HPC)): 105 % of control and 92 % of control

SMILES: Cc1cccc(C(=O)N(C)C(c2ccco2)P(=O)(c2ccccc2)c2ccccc2)c1 (centres undefined)
- T/C [3]: 107 % of control
- T/C [4]: 101 % of control
- T/C [5]: 90 % of control
- T/C [6]: 86 % of control

SMILES: CCOC(=O)Nc1ccc2nc(Sc3ccc(Cl)cc3)sc2c1
- T/C [3]: 103 % of control
- T/C [4]: 100 % of control
- T/C [5]: 106 % of control

SMILES: O=S(=O)(O)C(O)c1cccnc1 (centres undefined)
- T/C (dose: 100.0 mg/kg/injection, schedule: Q01DX009 (ip), vehicle: saline sonified): 100 % of control
- T/C (dose: 200.0 mg/kg/injection, schedule: Q01DX009 (ip), vehicle: saline sonified): 100 % of control
- T/C (dose: 400.0 mg/kg/injection, schedule: Q01DX009 (ip), vehicle: saline sonified): 100 % of control

SMILES: N#Cc1ccc[n+](Cc2c(Cl)cccc2Cl)c1
- T/C (dose: 6.25 mg/kg/injection, schedule: Q01DX009 (ip), vehicle: saline): 121 % of control
- T/C (dose: 12.5 mg/kg/injection, schedule: Q01DX009 (ip), vehicle: saline): 108 % of control and 112 % of control
- T/C (dose: 25.0 mg/kg/injection, schedule: Q01DX009 (ip), vehicle: saline): 101 % of control and 115 % of control
- T/C (dose: 50.0 mg/kg/injection, schedule: Q01DX009 (ip), vehicle: saline): 110 % of control and 97 % of control

SMILES: COc1ccc(CS(=O)(=O)c2cnc(N/N=C/c3ccc([N+](=O)[O-])o3)nc2N)c(OC)c1
- T/C [2]: 94 % of control
- T/C (dose: 200.0 mg/kg/injection, schedule: Q01DX001 (ip), vehicle: saline): 94 % of control
- T/C (dose: 400.0 mg/kg/injection, schedule: Q01DX001 (ip), vehicle: saline): 92 % of control

SMILES: c1ccc(Cc2ccccn2)nc1
- T/C [4]: 104 % of control
- T/C [5]: 104 % of control
- T/C [6]: 95 % of control

SMILES: CCOC1(C)C=CC(=NC(C)(C)C)C=C1 (centres undefined)
- T/C (dose: 25.0 mg/kg/injection, schedule: Q01DX009 (ip), vehicle: saline with Tween-80): 97 % of control
- T/C [3]: 101 % of control
- T/C [4]: 101 % of control

— PubChem BioAssay AID330 (DTP/NCI, 2004)
